In publication PMC9166630, “SAR Probing of KX2-391 Provided Analogues With Juxtaposed Activity Profile Against Major Oncogenic Kinases” (Frontiers in Oncology, 2022):
Read-outs that look alike come from different tables or passages of the source.

Experiments:
CYP3A4 = biological target: T1, CYP3A4 (Homo sapiens, UniProt P08684); assay: Inhibition assay of human CYP450 enzymes, 3A4; assay type: in vitro ADME; conditions: for IC50: testosterone substrate; for no inhibition of CYP3A4 at concentrations up to: the values are: IC50
T1 construct: purchased Fisher Scientific; host or cells: insect cells (supersomes)
Protocol: (§1) The two compounds 4e and 4n were assessed for their ability to inhibit the three major human CYP450 enzymes, 3A4, 2D6 and 2C9. Assays were run in triplicate. Expressed enzymes in insect supersomes (Fisher Scientific, Waltham, MA) were used to minimize non-specific binding and membrane partitioning issues ([68]). The 3A4 assay uses testosterone as a substrate and analysis was performed by LC/MS/MS on a Waters Xevo TQ instrument as described above using positive electrospray ionization. Assay acceptance criteria was 20% for all standards and 25% for the LLOQ. The 2D6 and 2C9 assays use fluorescent substrates (3-[2-(N,N-diethylamino)ethyl]-7-methoxy-4-methylcoumarin for 2D6; 7-methoxy-4-(trifluoromethyl)coumarin for 2C9) and were analyzed on an Envision plate reader. GraphPad® Prism v 5.04 was used for nonlinear fitting of data to generate IC50 values.

HL60 leukemia cell line = assay: CellTiter-Blue cell viability assay, HL60; assay type: cell-based; conditions: Homo sapiens, HL-60; CellTiter-Blue, 48 h; maximum tested concentration 20 µM; read-out: IC50 ± SEM, HL60
Protocol: (§2) HL60, K562, MV4-11 and NB4 were purchased from CLS Cell Line Service GmbH (Eppelheim, Germany). All cell lines were cultured in RPMI-1640 medium supplemented with 10% fetal bovine serum (FBS) (Thermo Fisher Scientific) and 0.1% ciprofloxacin (2.5mg/ml; Cipla Limited; Mumbai, India), and were maintained at 37°C in the presence of 21% O2 and 5% CO2.
(§3) Cell viability was determined using the CellTiter®-Blue Cell Viability Assay kit (Promega, Madison, WI, USA). Approximately 10^4 cells were counted and plated in a 96-well plate in the presence of test compounds ranging from 0.01 to 10 or 20 µM in triplicate and were incubated for 48 h at 37°C in a humidified incubator. After the incubation period was complete, 20 µL of CellTiter®-Blue Cell Viability Assay reagent was added to each well and incubated for additional 2 h for the development of florescence. Florescence was measured at Ex/Em 540/590 on SpectraMax® i3 Multi-Mode microplate reader (Molecular Devices, LLC; San Jose, CA, USA) and plotted against drug concentration to determine the IC50 of the test compounds. The IC50 was obtained by non-linear regression model using GraphPad Prism 6.07 (GraphPad Software, Inc, USA).

[1] = Stability in mouse liver microsomes; assay type: in vitro ADME; conditions: for half-life: male, CD-1, mouse liver microsomes with NADPH, 37°C, read-out: Stability MLM t1/2; for Mic. Ctrl. Mouse % 60 min: mouse liver microsomes, no NADPH added
Protocol: Both mouse and human liver microsomes were obtained from Merck KGaA, (Darmstadt, Germany), Cat. No. M9441 (Mouse liver microsomes) and M0317 (Human liver microsomes). Assays were conducted in triplicate in 96-deep well polypropylene plates. […] At five time points, reaction mixture aliquots were transferred to 96-shallow well stop plates on ice containing acetonitrile with 0.1 µM propafenone. […] Standard curves for test compound were generated using 5 concentrations in triplicate that were processed as above but with zero incubation time. Stop plates were centrifuged at 2000 g for 10 min and then supernatant aliquots were transferred to a Waters Aquity® UPLC 700 µL 96-well sample plate with cap mat (Waters, Milford, MA). The amount of compound remaining in the supernatant was quantified by LC/MS/MS using a Waters Xevo TQ MS (electrospray positive mode) coupled to a Waters Aquity® UPLC (BEH column, C18). Propafenone was used as the internal standard. GraphPad® Prism v 5.04 was used for nonlinear fitting of time course data to generate t1/2 values.

CYP2C9 = biological target: T2, CYP2C9 (Homo sapiens, UniProt P11712); assay: Inhibition assay of human CYP450 enzymes, 2C9; assay type: in vitro ADME; conditions: for IC50: fluorescent substrate; for no inhibition of CYP2C9 at concentrations up to: the values are: IC50
T2 construct: purchased Fisher Scientific; host or cells: insect cells (supersomes)
Protocol: as §1

[2] = tested on: MV4-11 leukemia cell line; assay: CellTiter-Blue cell viability assay, MV4-11; assay type: cell-based; conditions: Homo sapiens, CellTiter-Blue, 48 h, maximum tested concentration 20 µM, read-out: IC50 ± SEM, MV4-11
Protocol: as §2, §3

[3] = Binding to mouse plasma proteins (equilibrium dialysis); assay type: in vitro ADME; conditions: 10 µM, 37°C, 22 h dialysis
Protocol: The equilibrium dialysis method for determining plasma protein binding was performed as previously described using 96-well dialyzer plates with molecular weight cutoff of 5K (Harvard Aparatus, Holliston, MA) and a dual-plate rotator set to maximum speed (Harvard Aparatus, Holliston, MA) located in a 37°C incubator with a 10% CO2-atmospheric environment. Assays were run in triplicate. The test compounds were added to CD-1 mouse plasma (Innovative Research, Novi, MI, sodium heparin added as anticoagulant; pH adjusted to 7.4 with 2N HCl on day of use) in DMSO (final DMSO concentration 0.4%) to give 10 µM final concentration. Drug/plasma mixture and buffer (Dulbecco’s phosphate-buffered saline 1X without calcium and magnesium, Mediatech, Inc., Herndon, VA) were placed in their respective sides, wells were capped, and the plate was placed in the rotator and allowed to dialyze for 22 h. Following dialysis, aliquots of buffer and plasma mixture were removed and mixed with aliquots of the opposite matrix in 96-well deep plates. Concentrations of analytes from each side of the dialysis plate were determined by LC/MS/MS on a Waters Xevo TQ instrument as described above using positive electrospray ionization. […] The fraction unbound was calculated by dividing the drug concentration in the buffer side of the dialysis plate by the drug concentration in the plasma side.

CYP2D6 = biological target: T3, CYP2D6 (Homo sapiens, UniProt P10635); assay: Inhibition assay of human CYP450 enzymes, 2D6; assay type: in vitro ADME; conditions: for IC50: fluorescent substrate; for no inhibition of CYP2D6 at concentrations up to: the values are: IC50
T3 construct: purchased Fisher Scientific; host or cells: insect cells (supersomes)
Protocol: as §1

NB4 leukemia cell line = assay: CellTiter-Blue cell viability assay, NB4; assay type: cell-based, human; conditions: 48 h, CellTiter-Blue, 48 h, maximum tested concentration 20 µM, read-out: IC50 ± SEM, NB4
Protocol: as §2, §3

[4] = tested on: human skin fibroblasts (HSF); assay: Normal cell line assay; assay type: cell-based; conditions: Skin fibroblast
Protocol: In addition to having a good physicochemical profile, it is important for a studied lead to differentiate between cancer cells and highly proliferating non-cancerous cells. Therefore, we assessed compounds 4e and 4n for both the in silico and in vitro physicochemical characteristics as well as for cytotoxic effect on human skin fibroblasts (HSF) cell lines.
The effect of the two compounds was evaluated for their effect on the growth and proliferation human skin fibroblasts (HSF) as an example of non-cancerous cell lines.

K562 leukemia cell line = assay: CellTiter-Blue cell viability assay, K562; assay type: cell-based; conditions: Homo sapiens, CellTiter-Blue, 48 h, maximum tested concentration 20 µM, read-out: IC50 ± SEM, K562
Protocol: as §2, §3

T3 sequence (P10635 whole entry): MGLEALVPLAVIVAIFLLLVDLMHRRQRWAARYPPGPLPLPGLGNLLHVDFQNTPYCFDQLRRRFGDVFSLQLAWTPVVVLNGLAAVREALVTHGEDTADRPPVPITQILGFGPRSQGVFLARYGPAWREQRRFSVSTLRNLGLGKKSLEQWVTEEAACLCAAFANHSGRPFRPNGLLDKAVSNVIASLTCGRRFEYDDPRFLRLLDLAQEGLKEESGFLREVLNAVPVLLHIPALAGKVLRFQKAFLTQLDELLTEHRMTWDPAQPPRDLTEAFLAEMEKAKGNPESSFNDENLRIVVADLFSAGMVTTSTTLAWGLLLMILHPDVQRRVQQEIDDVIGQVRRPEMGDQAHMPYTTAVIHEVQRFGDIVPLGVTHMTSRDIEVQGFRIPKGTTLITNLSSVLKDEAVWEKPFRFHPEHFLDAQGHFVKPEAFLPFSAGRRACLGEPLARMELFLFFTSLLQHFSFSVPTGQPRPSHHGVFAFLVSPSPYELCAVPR
T2 sequence (P11712 whole entry): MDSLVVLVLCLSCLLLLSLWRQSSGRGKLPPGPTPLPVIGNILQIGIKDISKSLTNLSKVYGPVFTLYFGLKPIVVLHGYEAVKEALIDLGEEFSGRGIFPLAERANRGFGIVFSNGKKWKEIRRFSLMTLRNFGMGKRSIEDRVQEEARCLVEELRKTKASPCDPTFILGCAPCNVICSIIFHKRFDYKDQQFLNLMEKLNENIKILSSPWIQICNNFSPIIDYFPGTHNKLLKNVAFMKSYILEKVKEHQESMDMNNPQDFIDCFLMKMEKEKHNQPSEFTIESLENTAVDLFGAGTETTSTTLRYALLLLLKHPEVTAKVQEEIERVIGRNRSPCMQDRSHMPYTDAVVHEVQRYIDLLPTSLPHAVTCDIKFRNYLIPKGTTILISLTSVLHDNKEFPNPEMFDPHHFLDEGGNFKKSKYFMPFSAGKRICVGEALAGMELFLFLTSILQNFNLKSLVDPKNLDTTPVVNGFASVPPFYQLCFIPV
T1 sequence (P08684 whole entry): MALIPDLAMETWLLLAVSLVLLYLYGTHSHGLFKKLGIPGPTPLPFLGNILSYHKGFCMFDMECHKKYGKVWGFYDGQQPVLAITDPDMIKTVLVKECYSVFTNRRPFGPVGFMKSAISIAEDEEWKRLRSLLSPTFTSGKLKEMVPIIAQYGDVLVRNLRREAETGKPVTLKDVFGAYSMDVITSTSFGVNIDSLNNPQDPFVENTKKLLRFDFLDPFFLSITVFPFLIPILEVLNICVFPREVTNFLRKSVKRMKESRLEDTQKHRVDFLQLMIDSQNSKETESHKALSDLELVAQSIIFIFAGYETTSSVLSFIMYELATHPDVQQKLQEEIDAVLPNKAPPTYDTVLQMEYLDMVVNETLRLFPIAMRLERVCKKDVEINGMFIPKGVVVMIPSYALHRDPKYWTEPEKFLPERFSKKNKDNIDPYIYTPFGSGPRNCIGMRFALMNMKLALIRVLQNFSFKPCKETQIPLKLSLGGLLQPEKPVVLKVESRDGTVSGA

`O=C(Cc1ccc(NC(=O)c2cccc(Cl)n2)cc1)NCc1ccccc1` [Compound 4n, N-(4-(2-(benzylamino)-2-oxoethyl)phenyl)-6-chloropicolinamide] gave an IC50 (CYP3A4) of over 10000 nM, a no inhibition of CYP3A4 at concentrations up to (CYP3A4) of over 10 µM and an IC50 (HL60 leukemia cell line) of 2220 ± 60 nM. For the same molecule, the half-life [1] was 3.1 min, the “Mic. Ctrl. Mouse % 60 min” value [1] was 5.0% and the IC50 (CYP2C9) was over 10000 nM. The no inhibition of CYP2C9 at concentrations up to (CYP2C9) was over 10 µM, the IC50 [2] was 1960 ± 470 nM and the “Mouse PPB (% free)” value [3] was “Unstable”. The IC50 (CYP2D6) was over 10000 nM, the no inhibition of CYP2D6 at concentrations up to (CYP2D6) was over 10 µM and the IC50 (NB4 leukemia cell line; Homo sapiens) was 1540 ± 660 nM. For the same molecule, the IC50 [4] was 270 ± 30 nM and the IC50 (K562 leukemia cell line) was 2690 ± 650 nM.

Work on `O=C(Cc1ccc(NC(=O)c2cccc(Cl)c2)cc1)NCc1ccccc1` [Compound 4e, N-(4-(2-(benzylamino)-2-oxoethyl)phenyl)-3-chlorobenzamide] yielded an IC50 (CYP3A4) of over 10000 nM, a no inhibition of CYP3A4 at concentrations up to (CYP3A4) of over 10 µM and an IC50 (HL60 leukemia cell line) of 1620 ± 130 nM. The half-life [1] was over 60 min, the “Mic. Ctrl. Mouse % 60 min” value [1] was 73% and the IC50 (CYP2C9) was over 10000 nM. The no inhibition of CYP2C9 at concentrations up to (CYP2C9) was over 10 µM, the IC50 [2] was 1900 ± 80 nM and the “Mouse PPB (% free)” value [3] was 0.8 % free. The IC50 (CYP2D6) was over 10000 nM, the no inhibition of CYP2D6 at concentrations up to (CYP2D6) was over 10 µM and the IC50 (NB4 leukemia cell line) was 940 nM. The IC50 (NB4 leukemia cell line; Homo sapiens) was 960 nM, the IC50 [4] was over 20000 nM and the IC50 (K562 leukemia cell line) was 4230 ± 200 nM.
